The supplement of paper PMC10307832

Tests used:
Experiment in all cases: relative viability (nuclei count vs DMSO), 5 days (fraction); higher = more cells survive
Decitabine = compound: Nc1ncn([C@H]2C[C@H](O)[C@@H](CO)O2)c(=O)n1 [Decitabine]
In short: (§1)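 For viability, nuclei in each treated well were divided by nuclei in vehicle wells and the median across plates was taken. Lung cancer cell lines in 1536-well plates were pinned with five library-drug doses (not always all listed) spaced by √10, cultured 5 days without medium change, and imaged at 4× after Hoechst staining, with plates passing only at control CV below 25% and at least one doubling.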

Halofuginone = compound: O=C(C[C@H]1NCCC[C@@H]1O)Cn1cnc2cc(Br)c(Cl)cc2c1=O (racemic) [Halofuginone]
In short: as §1

Cediranib = compound: COc1cc2c(Oc3ccc4[nH]c(C)cc4c3F)ncnc2cc1OCCCN1CCCC1 [Cediranib]
In short: as §1

Cell Line	relative viability (Decitabine; 0.04 µM)	relative viability (Decitabine; 0.1265 µM)	relative viability (Decitabine; 0.4 µM)	relative viability (Decitabine; 1.265 µM)	relative viability (Decitabine; 4 µM)	relative viability (Halofuginone; 0.001 µM)	relative viability (Halofuginone; 0.003162 µM)	relative viability (Halofuginone; 0.01 µM)	relative viability (Halofuginone; 0.03162 µM)	relative viability (Halofuginone; 0.1 µM)	relative viability (Cediranib; 0.04 µM)	relative viability (Cediranib; 0.1265 µM)	relative viability (Cediranib; 0.4 µM)	relative viability (Cediranib; 1.265 µM)	relative viability (Cediranib; 4 µM)	relative viability (Decitabine; 2 µM, anchor plate)
IA-LM	0.509	0.431	0.272	0.192	0.158	0.995	0.94	0.944	0.862	0.354	0.951	0.948	0.877	0.888	1.08	
LC-2-ad	0.832	0.839	0.679	0.411	0.501	1.11	0.944	0.932	0.978	0.833	1.04	0.871	0.953	0.955	0.785	0.786
LCLC-97TM1	0.425	0.538	0.209	0.134	0.15	0.913	0.938	1.01	0.995	0.679	1.04		0.941	0.949	0.984	0.238
LCLC-103H	1.07	1.05	0.917	0.85	0.805	0.992	1.05	0.994	0.96	0.945	1.07	1.03	0.952	1.06	1.06	0.736
LK-2	0.848	1.03	0.721	0.472	0.484	0.91	0.927	1.03	1.02	0.741	1.03	0.86	0.909	0.965	0.821	0.302
LOU-NH91	0.781	0.928	0.886	0.83	0.848	1.03	0.929	0.98	1.06	0.912	0.967	1.15	0.932	0.878	0.958	0.808
LU99A	0.923	0.987	0.981	0.868	0.773	0.971	0.955	0.928	0.814	0.821	0.982		0.976	0.845	0.985	0.906
LXF-289	0.778	0.651	0.441	0.345	0.312	0.98	1.02	0.994	1.01	1	1.06	0.778	0.928	1.01	1.03	0.387
NCI-H23	0.671	0.462	0.341	0.26	0.293	0.979	0.937	0.868	0.874	0.671	0.882	0.75	0.847	0.844	1	0.324
NCI-H322M	0.685	0.821	0.742	0.591	0.587	0.991	0.956	0.883	0.649	0.478	0.929	1.18	0.871	0.819	1.02	0.699
NCI-H358	0.65	0.456	0.407	0.285	0.224	0.994	0.892	0.705	0.341	0.142	0.945	1.13	0.893	0.9	0.899	0.229
NCI-H441	0.406	0.381	0.274	0.229	0.238	1.14	1.12	1.06	0.943	0.596	1.04	0.985	0.884	1.03	1.09	0.25
NCI-H460	0.929	0.938	0.766	0.38	0.265	1.04	1.03	0.973	0.975	0.571	1.02	0.98	0.957	0.984	1.05	0.495
NCI-H520	0.847	0.811	0.508	0.472	0.374	1.01	1.07	1.04	0.91	0.635	1.12	0.747	0.917	0.804	0.865	0.517
NCI-H522	0.949	0.938	0.624	0.627	0.611	1.06	0.924	1.04	1.01	0.769	1.04	0.745	0.947	0.961	1.02	0.686
NCI-H596	0.894	0.871	0.607	0.799	0.692	1.01	0.965	1.13	0.882	0.549	1.06	0.959	0.935	0.907	1.1	1.04
NCI-H647	0.732	0.817	0.451	0.249	0.233	1.11	0.971	0.905	0.815	0.599	1.06	0.911	0.831	0.895	1.01	0.403
NCI-H650	0.717	0.596	0.363	0.325	0.332	1.04	1.01	0.956	0.881	0.719	0.892	0.787	0.961	0.87	0.996	0.31
NCI-H661	0.928	0.944	0.764	0.59	0.557	1.01	0.962	0.956	0.907	0.85	0.988	0.98	0.974	0.957	1.1	0.565
NCI-H727	0.733	0.658	0.662	0.579	0.553	1.01	0.88	0.788	0.848	0.65	0.631	0.824	0.906	0.935	0.989	0.903
NCI-H838	0.687	0.59	0.434	0.461	0.314	1	1	0.945	0.765	0.409	1.02	0.965	0.916	0.827	1.06	0.466
NCI-H1299	1.03	1.02	1.02	0.943	0.874	1.06	1.06	0.999	0.979	0.886	1.02	1.02	0.99	1.03	1.09	
